These results are taken from ChEMBL document CHEMBL5233248, “Resveratrol - A comprehensive review of recent advances in anticancer drug design and development” (Eur J Med Chem, 2020).

For orientation: IC50 means the concentration needed to halve the response being measured.

SMILES strings stand for the structures. Residues, ends and D or L forms follow the SMILES beside them. *: point of attachment. X1 = Oc1cc(O)cc(/C=C/c2ccc(O*)cc2)c1

The subject of test [1] is HeLa. Nature of the test: Anticancer activity against human HeLa cells. Format: functional, cell-based.
Another test concerns HepG2. Nature of the test: Anticancer activity against human HepG2 cells. Format: functional, cell-based.
In test [2] the test system is A549. Put plainly: Anticancer activity against human A549 cells. Format: functional, cell-based.
The subject of a further test is MCF7. Nature of the test: Anticancer activity against human MCF7 assessed as cell growth inhibition incubated for 72 hrs by MTT assay. Particulars: MCF7, 72 h. Format: functional, cell-based. Background: Tetrazolium dyes change colour on reduction, which living cells bring about.
For the next test, the system named is HCT-116. Put plainly: Anticancer activity against human HCT-116 assessed as cell growth inhibition incubated for 72 hrs by MTT assay. Particulars: HCT-116, 72 h. It is filed as functional, cell-based.
A further test relates to NCI-H460. Put plainly: Anticancer activity against human NCI-H460 assessed as cell growth inhibition incubated for 72 hrs by MTT assay. Particulars: NCI-H460, 72 h. It is filed as functional, cell-based.
Test [3] deals with A549. Put plainly: Anticancer activity against human A549 cells assessed as cell growth inhibition measured after 72 hrs by MTT assay. It is filed as functional, cell-based. Particulars: Homo sapiens, A549, 72 h.
In test [4] the test system is A549. Nature of the test: Potency index, ratio of test compound IC50 to Resveratrol IC50 for antiproliferative activity against human A549 cells. It is filed as functional.
In test [5] the test system is HeLa. Nature of the test: Anticancer activity against human HeLa cells assessed as cell growth inhibition measured after 72 hrs by MTT assay. Format: functional, cell-based. Particulars: Homo sapiens, HeLa, 72 h; read-out: IC50.
Test [6] in a line: Anticancer activity against Lung adenocarcinoma cell line assessed as cell growth inhibition measured after 72 hrs by MTT assay. Format: functional, cell-based. Particulars: Lung adenocarcinoma cell line, 72 h.

Take `COc1ccc(/C(=C/c2cc(C(F)(F)F)ccc2Cl)C(=O)O)cc1`: the IC50 in the test with HeLa [1] amounted to 4.79 µM; in the test with HepG2, 7.49 µM; with A549 [2] it was 3.77 µM.

Turning to `CC(C)C[C@H](NC(=O)[C@H](CCCCN)NC(=O)[C@H](CO)NC(=O)[C@@H](N)CC(C)C)C(=O)Oc1ccc(/C=C/c2cc(O)cc(O)c2)cc1` (H-LSKL-X1), the IC50 in the test with MCF7 came to 58 µM; in the test with HCT-116, 78 µM; in the test with NCI-H460 it was 41 µM.

For the compound `O=S(=O)(Oc1cc(O)cc(/C=C/c2ccc(O)cc2)c1)c1ccccc1`, the IC50 in the test on A549 [3] was determined as 4.38 µM; with HeLa [5], 8.16 µM; in [6], 10.2 µM. For the same compound, the “Ratio IC50” value in the test on A549 [4] is reported as 15.
